From patent US12275685B2, “Oligo-benzamide analogs and their use in cancer treatment” (Board of Regents, The University of Texas System, priority 2018, dated 2025)
“Also recorded” adds a separate entry of the source. Read-outs that look alike come from different tables or passages of the source.

What was measured:
[1] = system: MT-ERα (ZR-75 and MCF-7 cells with MT Y537S ERα) driven xenograft models; experiment: ERX-315 in MT-ERα BC xenograft models; type: in vivo; settings: for growth of MT-ERα xenografts / mouse liver, uterus, body weight: oral 10 mg/kg; for growth of MT-ERα xenografts: captisol
Procedure: Following establishment of tumors, mice (n=6/group) were randomized and treated for 5 days/week with either 10 mg/kg/oral of ERX-315 or vehicle.

D538G MT-ERα [2] = experiment: ERα ChIP, ERX-315; type: cell-based
Excerpt: (§1) FIGS. 66A-D: (FIG. 66A) Effect of ERX-315 on ERa DNA binding on the promoters of 5 canonical ERα-regulated genes with ERa ChIP in MCF-7 expressing D538G MT-ERα in the absence and presence of estradiol.
(§2) Prior studies have shown that MT-ERα drives a canonical ERα transcriptional programme, both in the absence and presence of estradiol. RNA sequencing studies indicate that ERX-315 alters the transcriptional heatmap in MCF-7 and ZR-75 cells expressing D538G and Y537S MT-ERα (FIG. 66B, data shown for MCF-7 cells expressing D538G MT-ERα).

D538G MT-ERα [3] = experiment: ERE reporter assay, ERX-315; type: cell-based; settings: MCF-7 cells expressing D538G MT-ERα
[4] = system: cell lines driven by MT-ERα; experiment: sXBP1 and CHOP RNA expression; settings: three cell lines driven by MT-ERα
[5] = system: WT- and MT-ERα-driven cell lines (MCF-7, ZR-75); experiment: Anti-proliferative activity in WT- and MT-ERα-driven cell lines; type: cell-based
[6] = system: MCF-7 expressing mutant D538G; experiment: Protein synthesis by puromycin labeling, BC cells; type: cell-based; settings: 16 h
HMEC cells = experiment: Protein synthesis by puromycin labeling, HMEC; type: cell-based, human
MT-ERα [7] = experiment: RNA sequencing of MT-ERα transcriptional programme; type: cell-based; settings: MCF-7 and ZR-75 cells expressing D538G and Y537S MT-ERα
Excerpt: as §1, §2

[8] = system: human mammary epithelial cells (HMEC); experiment: Activity of ERX-315 in HMEC; type: cell-based
Excerpt: ERX-315. The binding of ERX-315 (structure shown in FIG. 65C) to ERα has been validated for WT ERα LBD using time-resolved FRET (TR-FRET)-ERα Coactivator assay (FIG. 65D: purified MT-ERα LBD is not available). […] In contrast, ERX-314, which has a methyl group in place of the N-terminal fluoride of ERX-315, is modeled to bind less avidly to MT-ERα LBD (predicted docking energy˜[…]). […] ERX-315 had no activity against benign breast epithelial cells, shown for the human mammary epithelial cells (HMEC). In contrast, ERX-314 has dramatically lower potency (IC50˜1500-5000 nM) and serves an internal control for ERX-315. The inventors have performed most of the studies described below with three compounds-ERX-315 as the optimized lead, ERX-11 as the parental compound and ERX-314 as a negative control.

MT-ERα [9] = experiment: MT-ERα protein levels; type: cell-based; settings: over 12-24 h
[10] = system: BC cells expressing MT-ERα; experiment: Uncompensated UPR / LC3B activation; type: cell-based
Procedure: ERX-315 decreases expression of ERα MCF-7 cells with MT-ERα, both the Y537S and D538G mutants (FIG. 67C), around 12-16 h (FIG. 67D). […] In contrast, neither fulvestrant nor GDC-0810 consistently degrade MT-ERa nor induce LC3.

[11] = Pharmacokinetic studies of ERX-315; type: in vivo, mice
Procedure: At 24 h after oral administration, ERX-315 was still detectable in the plasma at >500 ng/mL. […] Thus, the inventors' initial studies indicate that once a day oral dosing of 10 mg/kg ERX-315 in captisol is sufficient to maintain therapeutic drug levels.

breast cancer cells = experiment: Growth inhibition of breast cancer cells; type: cell-based; settings: read-out: IC50, activity against breast cancer cells
Excerpt: In addition, another tris-benzmaide compound TK208 was synthesized and tested against breast cancer and ovarian cancer cell lines (FIGS. 10-15). […] These compounds (e.g., TK41, TK208, TK308 (FIG. 21), TK309 (FIG. 22), TK314, TK315) are extremely potent compounds that inhibit tumor growth and kill breast and ovarian cancer cells and as such, they are superb therapeutic candidates for such diseases.

WT ERα LBD = target: T1, WT ERα LBD (Homo sapiens, UniProt P03372); experiment: LanthaScreen TR-FRET ERα coactivator assay; type: binding
T1 construct: in the presence of 3.5 nM ER Alpha-LBD (GST); purchased
T1 sequence (P03372 311-547 limits assumed): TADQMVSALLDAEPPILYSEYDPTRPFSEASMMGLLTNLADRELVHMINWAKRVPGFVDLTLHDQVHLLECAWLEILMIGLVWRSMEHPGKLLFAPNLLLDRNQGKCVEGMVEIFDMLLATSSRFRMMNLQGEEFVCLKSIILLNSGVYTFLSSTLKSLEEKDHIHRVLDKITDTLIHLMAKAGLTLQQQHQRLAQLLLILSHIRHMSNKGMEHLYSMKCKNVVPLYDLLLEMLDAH

Compound: CC(C)COc1cc(C(=O)Nc2ccc(C(=O)N[C@H]3CC[C@H](C(=O)Nc4cnc5ccccc5c4)CC3)cc2OCC(C)C)ccc1NC(=O)c1ccc(F)c(OCCO)c1 [TK315]
- Ki67 proliferation indices in tumors ([1]; mouse, in vivo): dramatically decreased Ki67 proliferation indices
- growth of MT-ERα xenografts ([1]; 10 mg/kg): potent activity; also recorded: decreased the growth and tumor weight
- growth of MT-ERα xenografts ([1]; listed as ERX-315, 10 mg/kg): decreased the growth; also recorded: potent activity
- mouse liver, uterus, body weight ([1]; 10 mg/kg): no effect on mouse liver or body weight; also recorded: No change in body weight
- mouse liver, uterus, body weight ([1]; listed as ERX-315, 10 mg/kg): no change in body weight; also recorded: no effect on mouse liver, uterus height or body weight
- immunogenicity ([1]; syngeneic D2A1 tumors, spleen, lymph nodes, kidney, liver): not immunogenic
- MT-ERα binding to promoters of ERα-regulated genes (D538G MT-ERα [2]): dramatically decreases MT-ERα binding
- ERE-driven transcription (D538G MT-ERα [3]): attenuate transcription
- expression of sXBP1 and CHOP at the RNA level [4]: significantly enhance
- IC50 [5]: 15 to 35 nM
- shutdown of protein synthesis in BC cells [6]: Global shutdown of protein synthesis
- shutdown of protein synthesis in HMEC (HMEC cells): no significant shutdown of protein synthesis
- MT-ERα transcriptional programme (MT-ERα [7]): efficiently blocks the transcriptional programme
- activity against benign breast epithelial cells [8]: no activity
- protein levels of mutant ERα (MT-ERα [9]): < 10 % basal
- uncompensated UPR leading to LC3B activation and cell death [10]: induced uncompensated UPR
- oral bioavailability ([11]; captisol formulation): orally bioavailable
- concentration at 0.5 h ([11]; mouse, blood, 0.5 hr, single oral 10 mg/kg in captisol): 3440 ± 2320 ng/mL
- concentration at 1 h ([11]; mouse, blood, 1 hr, single oral 10 mg/kg in captisol): 2400 ± 1460 ng/mL
- concentration at 2 h ([11]; mouse, blood, 2 hr, single oral 10 mg/kg in captisol, read-out: Blood): 1840 ± 1290 ng/mL
- concentration at 4 h ([11]; mouse, blood, 4 hr, single oral 10 mg/kg in captisol, read-out: Blood): 16000 ± 394 ng/mL
- concentration at 8 h ([11]; mouse, blood, 8 hr, single oral 10 mg/kg in captisol, read-out: Blood): 823 ± 123 ng/mL
- concentration at 16 h ([11]; mouse, blood, 16 hr, single oral 10 mg/kg in captisol, read-out: Blood): 427 ± 197 ng/mL
- concentration at 24 h ([11]; mouse, plasma, 10 mg/kg, 24 h after oral administration, read-out: plasma level): > 500 ng/mL
- half-life ([11]; mouse, plasma, 10 mg/kg, oral, captisol): ~4.5 h
- concentration at 2 h ([11]; mouse, tumor, 10 mg/kg, 2 hr after last dose, MCF7 xenograft, oral 5 days/week for 10 days, read-out: Tumor): 1430 ± 631 ng/mL
- concentration at 4 h ([11]; mouse, tumor, 10 mg/kg, 4 hr after last dose, MCF7 xenograft, oral 5 days/week for 10 days, read-out: Tumor): 1010 ± 850 ng/mL
- concentration at 8 h ([11]; mouse, tumor, 10 mg/kg, 8 hr after last dose, MCF7 xenograft, oral 5 days/week for 10 days, read-out: Tumor): 609 ± 404 ng/mL
- concentration at 16 h ([11]; mouse, tumor, 10 mg/kg, 16 hr after last dose, MCF7 xenograft, oral 5 days/week for 10 days, read-out: Tumor): 187 ± 238 ng/mL
- concentration at 16 h ([11]; mouse, tumor, oral, 10 mg/kg, 16 h after the last dose, read-out: corresponding tumor concentration): > 100 nM
- concentration at 16 h ([11]; mouse, tumor, MCF-7 xenograft, 2 weeks daily oral 10 mg/kg, 16 h after the last dose, read-out: tumor tissue level): > 100 ng/g
- toxicity at 10 mg/kg ([11]; once a day oral 10 mg/kg): no significant toxicity
- IC50 (breast cancer cells): 10 to 50 nM
- binding to WT ERα LBD (WT ERα LBD): validated
